The text below walks through data of patent publication US7396844B1, “Benzamidine derivatives” (Ajinomoto Co., Inc., priority 1997, dated 2008).

For experiment [1], the target named is T1, activated human blood coagulation factor X (Homo sapiens, UniProt P00742).
T1 construct: purchased Enzyme Research Co
Nature of the experiment: Determination of activity of inhibiting the activated blood coagulation factor X. The format is biochemical. Particulars: same manner as Example 93; for IC50: read-out: Activity of inhibiting activated blood coagulation factor X (pIC50) (converted). Here is the method:
130 μl of 100 mM Tris-HCl buffer adjusted to pH 8.4 was added to 10 μl of an aqueous solution of a compound to be tested. Then 10 μl of a 0.5 unit/ml solution of activated human blood coagulation factor X (a product of Enzyme Research Co.) in Tris-HCl buffer hydrochloride of pH 8.4 was added to the resultant mixture. After the incubation at room temperature for 10 minutes, 50 μl of a solution of N-benzoyl-L-isoleucyl-L-glutamyl-glycyl-L-arginyl-p-nitroanilide hydrochloride (a product of Peptide Institute, Inc.) adjusted to 0.8 mM with Tris-HCl buffer (pH 8.4) was added thereto. The absorbance was determined and then the initial reaction rate was determined. A control was prepared in the same manner as that described above except that the solution of the compound to be tested was replaced with 10 μl of Tris-HCl buffer adjusted to pH 8.4.

Experiment [2] addresses T2, human thrombin (Homo sapiens, UniProt P00734).
T2 construct: human thrombin (a product of SIGMA Co.); purchased SIGMA Co
The experiment in a line: Determination of thrombin-inhibiting activity. The format is biochemical. Particulars: same manner as Example 94. As to the method:
130 μl of 100 mM Tris-HCl buffer adjusted to pH 8.4 was added to 10 μl of an aqueous solution of a test compound. Then 10 μl of a solution of human thrombin (a product of SIGMA Co.) adjusted to 2 units/ml with Tris-HCl buffer of pH 8.4 was added to the resultant mixture. […] The absorbance was determined and then the initial reaction rate was determined. A control was prepared in the same manner as that described above except that the solution of the compound to be tested was replaced with 10 μl of tris hydrochloride buffer adjusted to pH 8.4.

In experiment [3] the test system is blood plasma. The experiment in a line: Determination of blood anticoagulating activity by prothrombin time (PT). The experiment is classed as biochemical, human. Also on record: key: -log of concentration doubling control PT. As to the method: The blood anticoagulating activity was determined by a prothrombin time (PT) determination method. The PT was determined as follows: The blood was taken from healthy people. […] The blood plasma was separated by the centrifugation. 5 μl of DMSO solution containing a test compound was added to 45 μl of the blood plasma. After the incubation at room temperature for 2 minutes, a test tube containing the blood plasma solution was placed in Sysmex CA-3000 fully automatic blood coagulation determination device (a product of Toa Medical Electronics Co., Ltd), and incubated at 37° C. for 3 minutes. […] PT was automatically determined with the device. A sample containing 5 μl of DMSO in place of the solution of the test compound was used as the control. The negative logarithm (PT2) of the concentration of the test compound which elongated PT of the control to the twice as long was determined, and employed as the index of the blood anticoagulating activity.

[4] abbreviates: Table 3, same manner as Example 184, negative logarithm of concentration doubling PT.
The mark [5] stands for this setting: Table 2, read-out: Thrombin-inhibiting activity (pIC50) (converted).
[6] abbreviates: Table 2, negative logarithm of concentration that elongated PT of the control to twice as long, plasma of healthy people.
[7] abbreviates: Table 3, read-out: Thrombin inhibiting activity (pIC50) (converted).

Each structure is given as a SMILES string. Where two headings read alike, the source gives them in different places.

T1 sequence (P00742 235-488 limits assumed): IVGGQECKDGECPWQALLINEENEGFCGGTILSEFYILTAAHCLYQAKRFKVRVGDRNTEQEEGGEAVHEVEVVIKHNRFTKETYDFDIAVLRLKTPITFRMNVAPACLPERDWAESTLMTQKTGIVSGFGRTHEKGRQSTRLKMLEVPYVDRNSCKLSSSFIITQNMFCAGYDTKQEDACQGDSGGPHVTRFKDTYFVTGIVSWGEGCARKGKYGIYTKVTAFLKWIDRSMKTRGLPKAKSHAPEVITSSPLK
T1 sequence (P00742 41-179 partner limits assumed): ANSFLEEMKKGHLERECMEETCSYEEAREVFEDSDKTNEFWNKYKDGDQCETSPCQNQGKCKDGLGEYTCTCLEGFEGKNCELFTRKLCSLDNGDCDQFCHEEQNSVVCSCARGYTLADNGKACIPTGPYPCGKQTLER

Turning to `CC(=N)N1CCC(Oc2ccc(C(=O)N[C@@H](COc3cc(C(=N)N)ccc3CC(=O)C(=O)O)CC(=O)O)cc2)CC1.O=C(O)C(F)(F)F.O=C(O)C(F)(F)F` [Compound of Ex. 193, (3R)-4-[5-amidino-2-(2-carboxy-2-oxoethyl)phenoxy]-3-[4-(1-(1-iminoethyl)piperidyl-4-oxy)benzoylamino]butanoic acid bistrifluoroacetate], in experiment [1] (Table 3), the “Activity of inhibiting activated blood coagulation factor X (pIC50)” value is recorded as 7.9. Further, the “Thrombin inhibiting activity (pIC50)” value in experiment [2] (Table 3) is on record as 3.4. Besides, the “Blood anticoagulating activity (PT2)” value in experiment [3] (setting [4]) amounted to 6.2.
Turning to `N=C(N)c1ccc(C(=O)N[C@@H](COc2cccc(C(=N)N)c2)Cc2ccccc2)cc1.O=C(O)C(F)(F)F.O=C(O)C(F)(F)F` [Compound of Ex. 117, N-[(1R)-2-(3-amidinophenoxy)-1-benzylethyl]-4-amidinobenzamide bistrifluoroacetate], the results for the IC50 in experiment [1] (Table 2) and in experiment [2] (setting [5]) were 0.0398 µM and 251 µM, respectively. In addition, the “Blood anticoagulating activity (PT2)” value in experiment [3] (setting [6]) is listed as 6.7.
Turning to `CC(=N)N1CCC(Oc2ccc(C[C@@H](COc3cccc(C(=N)N)c3)NS(=O)(=O)c3ccc(C(=O)O)cc3)cc2)CC1.O=C(O)C(F)(F)F.O=C(O)C(F)(F)F` [Compound of Ex. 168, 4-[(2S)-1-[4-(1-acetimidoyl-4-piperidyloxy)phenyl]-3-(3-amidinophenoxy)-2-propylsulfamoyl]benzoic acid bistrifluoroacetate], the IC50 in experiment [1] (Table 2) is 0.0316 µM; in experiment [2] (setting [5]) it was 79.4 µM. In experiment [3] (setting [6]), the “Blood anticoagulating activity (PT2)” value was 6.2.
For the molecule `N=C(N)c1ccc(CC(=O)C(=O)O)c(OC[C@@H](CC(=O)O)NC(=O)c2ccc(C(=O)N3CCCC3)cc2)c1.O=C(O)C(F)(F)F` [Compound of Ex. 191, (3R)-4-[5-amidino-2-(2-carboxy-2-oxoethyl)phenoxy]-3-[4-(pyrrolidine-1-carbonyl)benzoylamino]butanoic acid trifluoroacetate], the IC50 in experiment [1] (Table 3) is 0.00398 µM; in experiment [2] (setting [7]) it was 200 µM. Also, the “Blood anticoagulating activity (PT2)” value in experiment [3] (setting [4]) worked out at 6.0.
With `N=C(N)c1cccc(OC[C@H](Cc2ccc(OC3CCNCC3)cc2)NS(=O)(=O)c2ccc(C(=O)O)cc2)c1.O=C(O)C(F)(F)F.O=C(O)C(F)(F)F` [Compound of Ex. 167, 4-[(2S)-1-[4-(4-piperidyloxy)phenyl]-3-(3-amidinophenoxy)-2-propylsulfamoyl]benzoic acid bistrifluoroacetate], the IC50 was 0.501 µM in experiment [1] (Table 2) and 126 µM in experiment [2] (setting [5]). The “Blood anticoagulating activity (PT2)” value in experiment [3] (setting [6]) came out at 5.
The like results for `N=C(N)c1ccc(C(=O)NCCCOc2cccc(C(=N)N)c2)cc1.O=C(O)C(F)(F)F.O=C(O)C(F)(F)F` [Compound of Ex. 122, N-[3-(3-amidinophenoxy)propyl]-4-amidinobenzamide bistrifluoroacetate] were, in that order, 0.501 µM, more than 1000 µM and 4.5.
The like results for `N=C(N)c1cccc(OC[C@H](Cc2ccc(OC3CCNCC3)cc2)NS(=O)(=O)c2ccccc2)c1.O=C(O)C(F)(F)F.O=C(O)C(F)(F)F` [Compound of Ex. 154, 3-[(2S)-2-(benzenesulfonylamino)-3-[4-(4-piperidyloxy)phenyl]propoxy]benzamidine bistrifluoroacetate] were, in that order, 1.58 µM, 79.4 µM and 5.1.
For `CC(=N)N1CCC(Oc2ccc(C[C@@H](COc3cc(C(=N)N)ccc3CC(=O)C(=O)O)NS(=O)(=O)c3ccccc3)cc2)CC1.O=C(O)C(F)(F)F.O=C(O)C(F)(F)F` [Compound of Ex. 181, 3-[4-amidino-2-[(2S)-3-[4-(1-acetimidoyl-4-piperidyloxy)phenyl]-2-(benzenesulfonylamino)propoxy]phenyl]-2-oxopropionic acid bistrifluoroacetate], in that order: 0.02 µM, 1.58 µM and 6.7.
For the molecule `N=C(N)c1ccc(C(=O)N[C@@H](COc2cc(C(=N)N)ccc2CC(=O)C(=O)O)CC(=O)O)cc1.O=C(O)C(F)(F)F.O=C(O)C(F)(F)F` [Compound of Ex. 186, (3R)-3-(4-amidinobenzoylamino)-4-[5-amidino-2-(2-carboxy-2-oxoethyl)phenoxy]butanoic acid bistrifluoroacetate], the figures for the IC50 in experiment [1] (Table 3) and in experiment [2] (setting [7]) were 0.02 µM and 251 µM, respectively. The “Blood anticoagulating activity (PT2)” value in experiment [3] (setting [4]) is on record as 5.9.
Consider `N=C(N)c1ccc(CC(=O)C(=O)O)c(OC[C@H](Cc2ccc(OC3CCNCC3)cc2)NS(=O)(=O)c2ccccc2)c1.O=C(O)C(F)(F)F.O=C(O)C(F)(F)F` [Compound of Ex. 180, 3-[4-amidino-2-[(2S)-2-(benzenesulfonylamino)-3-[4-(4-piperidyloxy)phenyl]propoxy]phenyl]-2-oxopropionic acid bistrifluoroacetate], for which the IC50 in experiment [1] (Table 2) was 0.158 µM; in experiment [2] (setting [5]), 3.16 µM. For the same molecule, the “Blood anticoagulating activity (PT2)” value in experiment [3] (setting [6]) was found to be 5.7.
The like results for `N=C(N)c1cccc(OCCNC(=O)c2ccc(CN)cc2)c1.O=C(O)C(F)(F)F.O=C(O)C(F)(F)F` [Compound of Ex. 98, N-[2-(3-amidinophenoxy)ethyl]-4-(aminomethyl)benzamide bistrifluoroacetate] were, in that order, 3.16 µM, 631 µM and less than 4.5.
For `CC(=N)N1CCC(Oc2ccc(C(=O)NCCOc3cccc(C(=N)N)c3)cc2)CC1.O=C(O)C(F)(F)F.O=C(O)C(F)(F)F` [Compound of Ex. 99, N-[2-(3-amidinophenoxy)ethyl]-4-(1-acetimidoyl-4-piperidyloxy)benzamide bistrifluoroacetate], in that order: 0.251 µM, 316 µM and 6.2.
